Values of other authors, collected in US20040147564A1, “Combinations of glimepiride and the thiazolidinedione for treatment of diabetes” (priority 2003, published 2004).

How the values were obtained:
[1] = not given; remark: listed apart in the source
[2] = not given; remark: listed apart in the source

Compound	Solubility in buffered aqueous solution (pH of 2.3)	Solubility in water (at 25° C.) [mg/mL]	Elimination half-life ([1]; at steady state after oral administration) [h]	Terminal half-life ([1]; in vivo)	Reduction of absolute HbA1c levels ([2]; human, in vivo)	Increase of plasma insulin levels ([2]; patients with type 2 diabetes) [%]
CN(CCOc1ccc(CC2SC(=O)NC2=O)cc1)c1ccccn1 (stereo not drawn) [Rosiglitazone, rosiglitazone]	readily soluble	–	–	–	–	–
CCC1=C(C)CN(C(=O)NCCc2ccc(S(=O)(=O)NC(=O)N[C@H]3CC[C@H](C)CC3)cc2)C1=O [glimepiride, 1-[[p-[2-(3-ethyl-4-methyl-2-oxo-3-pyrroline-1-carboxamido)ethyl]phenyl]sulfonyl]-3-(trans-4-methylcyclohexyl)urea]	–	≤ 0.1	5 to 8	more than 5 hours	1-2%	≤ 50
